Measured values published in patent US20080009418A1, “Selective Inhibitors” (Alchemia LTD., priority 2004, published 2008).

Assays:
[1] = biological target: T1, Human neuropeptide Y (NPY-Y1) (Homo sapiens, UniProt P25929); assay: Radioligand binding, human neuropeptide Y NPY-Y1 membranes, FlashPlate, [125I]-PYY; conditions: compound at 10 μM; [125I]-PYY
T1 construct: purchased Perkin Elmer Biosignal
T1 sequence (P25929 1-384): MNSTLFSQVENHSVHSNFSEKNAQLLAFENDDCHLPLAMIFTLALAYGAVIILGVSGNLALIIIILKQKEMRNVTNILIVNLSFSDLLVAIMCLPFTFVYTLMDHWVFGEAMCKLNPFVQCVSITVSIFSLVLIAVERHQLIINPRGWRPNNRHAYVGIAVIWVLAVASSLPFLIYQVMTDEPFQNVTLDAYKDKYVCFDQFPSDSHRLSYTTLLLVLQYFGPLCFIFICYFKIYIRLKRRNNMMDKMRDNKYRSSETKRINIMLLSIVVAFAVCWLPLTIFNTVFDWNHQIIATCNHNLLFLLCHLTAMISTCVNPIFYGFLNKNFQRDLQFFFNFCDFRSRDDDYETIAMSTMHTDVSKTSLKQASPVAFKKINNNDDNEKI
Protocol: (§1) Cloned receptor membrane preparations from Perkin Elmer Biosignal™ were used in radioligand binding assays.
(§2) A1 Human δ-opioid (DOP), A2 Human κ-Opioid (KOP), A3 Human Melanocortin (MC3), A4 Human Melanocortin (MC4), A5 Human melanocortin (MC5), A6 Human melanin-concentrating hormone (MCH1), A7 Human μ-opioid (MOP), A8 Human neurokinin (NK1), A9 Human neuropeptide Y (NPY-Y1), A10 Human opioid (ORL1) A11 Mouse urotensin (mUR2)
(§3) Screening experiments were performed in either a 50 μl filtration or 25 μl FlashPlate assay format using the following protocol:
(§4) 19.5 μl buffer, 0.5 μl of compound diluted in DMSO, 5 μl of radioligand diluted in binding buffer.
(§5) The day prior to performing the experiment 50 μl DMSO was added to each well of the compound plates to yield compounds at a final concentration of 10 mM. Daughter plates were then created by diluting the compounds further in DMSO to a concentration of 0.5 mM. The mother plates were frozen immediately.
(§6) Immobilize membranes into FlashPlate microplates using PerkinElmer BioSignal's proprietary coating procedure. Dilute radioligand to 5× the final concentration in binding buffer. Add 19.5 μl buffer to each well of the FlashPlate. Add 0.5 μl of DMSO (total value, 5 wells), reference ligand (non-specific value, 3 wells) or compound to the corresponding wells in the FlashPlate microplate. Initiate the reaction by adding 5 μl of radioligand to each well. Apply TopSeal-A onto FlashPlate microplates. Incubate at room temperature for 1 hour in the dark. Count for 30 seconds per well on TopCount Microplate Scintillation and Luminescence Counter (PerkinElmer) using a count delay of 60 seconds.
(§7) Percentage inhibition was calculated using the following formula: [formula]

Human μ-opioid (MOP) = biological target: T2, Human μ-opioid (MOP) (Homo sapiens, UniProt P35372); assay: Radioligand binding, human μ-opioid (MOP) membranes, FlashPlate, [3H]-Naloxone; conditions: compound at 10 μM, [3H]-Naloxone
T2 construct: purchased Perkin Elmer Biosignal
Protocol: as §1, §2, §3, §4, §5, §6, §7

Human δ-opioid (DOP) = biological target: T3, Human δ-opioid (DOP) (Homo sapiens, UniProt P41143); assay: Radioligand binding, human δ-opioid (DOP) membranes, FlashPlate, [3H]-Bremazocine; conditions: compound at 10 μM, [3H]-Bremazocine
T3 construct: purchased Perkin Elmer Biosignal
Protocol: as §1, §2, §3, §4, §5, §6, §7

Human Melanocortin (MC3) = biological target: T4, Human Melanocortin (MC3) (Homo sapiens, UniProt P41968); assay: Radioligand binding, human melanocortin MC3 membranes, FlashPlate, [125I]-NDP-αMSH; conditions: compound at 10 μM, [125I]-NDP-αMSH
T4 construct: purchased Perkin Elmer Biosignal
Protocol: as §1, §2, §3, §4, §5, §6, §7

Human κ-Opioid (KOP) = biological target: T5, Human κ-Opioid (KOP) (Homo sapiens, UniProt P41145); assay: Radioligand binding, human κ-opioid (KOP) membranes, filtration, [3H]-Diprenorphine; conditions: compound at 10 μM, [3H]-Diprenorphine
T5 construct: purchased Perkin Elmer Biosignal
Protocol: as §1, §2, §3
(§8) 44 μl membranes diluted in buffer, 1 μl of compound diluted in DMSO, 5 μl of radioligand diluted in binding buffer.
as §5
(§9) Thaw membranes on ice then dilute membranes in binding buffer at a concentration of 1 Unit per well. Dilute radio-ligand to 10 times the final concentration in binding buffer. Add 44 μl of diluted membranes to each well of the deep-well plate. Add 1 μl of DMSO (total value, 5 wells), reference ligand (non-specific value, 3 wells) or compound to the corresponding wells in the deep-well plate. Initiate the reaction by adding 5 μl of radioligand to each well and vortex gently. Incubate at room temperature for 1 hour. During incubation, pre-incubate the Multiscreen Harvest plates in 0.3% PEI. Filter over pre-soaked Multiscreen Harvest plates using a Tomtec Harvester. Wash 9 times with 500 μl of cold 50 mM Tris-HCl pH 7.4 at 4° C. and air-dry for 30 minutes at room temperature under a fume hood. Apply a bottom seal to the Multiscreen Harvest plates. Add 25 μl of MicroScint-0 to each well. Apply TopSeal-A to the plate. Count for 30 seconds per well on TopCount Microplate Scintillation and Luminescence Counter (PerkinElmer) using a count delay of 60 seconds.
as §7

Mouse urotensin (mUR2) = biological target: T6, Mouse urotensin (mUR2) (Mus musculus, UniProt Q8VIH9); assay: Radioligand binding, mouse urotensin mUR2 membranes, FlashPlate, [125I]-Urotensin II; conditions: compound at 10 μM; [125I]-Urotensin II
T6 construct: purchased Perkin Elmer Biosignal
T6 sequence (Q8VIH9 1-385): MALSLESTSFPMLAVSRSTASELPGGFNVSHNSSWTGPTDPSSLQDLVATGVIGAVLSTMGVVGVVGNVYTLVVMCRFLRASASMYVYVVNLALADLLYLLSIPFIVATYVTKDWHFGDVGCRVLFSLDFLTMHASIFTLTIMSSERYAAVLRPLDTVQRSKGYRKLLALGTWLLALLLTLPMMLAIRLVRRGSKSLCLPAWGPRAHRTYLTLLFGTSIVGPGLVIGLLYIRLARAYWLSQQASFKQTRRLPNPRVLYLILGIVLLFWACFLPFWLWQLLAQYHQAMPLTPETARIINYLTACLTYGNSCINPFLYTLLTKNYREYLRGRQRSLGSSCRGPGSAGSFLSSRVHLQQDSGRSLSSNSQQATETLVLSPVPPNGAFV
Protocol: as §1, §2, §3, §4, §5, §6, §7

Human melanocortin (MC5) = biological target: T7, Human melanocortin (MC5) (Homo sapiens, UniProt P33032); assay: Radioligand binding, human melanocortin MC5 membranes, FlashPlate, [125I]-NDP-αMSH; conditions: compound at 10 μM; [125I]-NDP-αMSH
T7 construct: purchased Perkin Elmer Biosignal
Protocol: as §1, §2, §3, §4, §5, §6, §7

Human Melanocortin (MC4) = biological target: T8, Human Melanocortin (MC4) (Homo sapiens, UniProt P32245); assay: Radioligand binding, human melanocortin MC4 membranes, FlashPlate, [125I]-NDP-αMSH; conditions: compound at 10 μM; [125I]-NDP-αMSH
T8 construct: purchased Perkin Elmer Biosignal
Protocol: as §1, §2, §3, §4, §5, §6, §7

Human opioid (ORL1) = biological target: T9, Human opioid (ORL1) (Homo sapiens, UniProt P41146); assay: Radioligand binding, human opioid ORL1 membranes, FlashPlate, [125I]-Nociceptin; conditions: compound at 10 μM; [125I]-Nociceptin
T9 construct: purchased Perkin Elmer Biosignal
Protocol: as §1, §2, §3, §4, §5, §6, §7

[2] = biological target: T10, Human melanin-concentrating hormone (MCH1) (Homo sapiens, UniProt Q99705); assay: Radioligand binding, human melanin-concentrating hormone MCH1 membranes, FlashPlate, [125I]-S36057; conditions: compound at 10 μM; [125I]-S36057
T10 construct: purchased Perkin Elmer Biosignal
Protocol: as §1, §2, §3, §4, §5, §6, §7

Human neurokinin (NK1) = biological target: T11, Human neurokinin (NK1) (Homo sapiens, UniProt P25103); assay: Radioligand binding, human neurokinin NK1 membranes, filtration, [125I]-Substance P; conditions: compound at 10 μM; [125I]-Substance P
T11 construct: purchased Perkin Elmer Biosignal
Protocol: as §1, §2, §3, §8, §5, §9, §7

T11 sequence (P25103 whole entry): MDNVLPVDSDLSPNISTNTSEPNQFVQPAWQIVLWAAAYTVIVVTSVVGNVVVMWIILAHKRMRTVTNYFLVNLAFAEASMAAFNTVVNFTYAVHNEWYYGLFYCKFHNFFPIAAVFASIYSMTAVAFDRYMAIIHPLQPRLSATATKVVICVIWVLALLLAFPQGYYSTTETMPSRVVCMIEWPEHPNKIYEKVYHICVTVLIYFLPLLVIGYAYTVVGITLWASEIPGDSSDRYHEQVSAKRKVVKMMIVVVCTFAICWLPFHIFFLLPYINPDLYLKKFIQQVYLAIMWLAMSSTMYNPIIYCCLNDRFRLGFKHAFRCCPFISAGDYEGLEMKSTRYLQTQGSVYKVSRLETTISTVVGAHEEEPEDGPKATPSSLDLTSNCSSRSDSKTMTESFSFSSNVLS
T5 sequence (P41145 whole entry): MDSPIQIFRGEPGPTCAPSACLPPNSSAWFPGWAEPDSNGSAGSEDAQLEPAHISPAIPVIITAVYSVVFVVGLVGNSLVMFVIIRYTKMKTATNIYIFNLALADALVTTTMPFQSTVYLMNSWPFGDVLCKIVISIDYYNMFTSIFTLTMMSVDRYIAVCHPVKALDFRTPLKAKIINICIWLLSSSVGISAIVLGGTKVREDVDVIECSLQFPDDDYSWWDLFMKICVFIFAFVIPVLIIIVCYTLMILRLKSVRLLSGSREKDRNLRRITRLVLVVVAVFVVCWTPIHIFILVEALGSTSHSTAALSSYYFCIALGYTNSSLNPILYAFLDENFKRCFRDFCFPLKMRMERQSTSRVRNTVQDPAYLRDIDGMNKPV
T4 sequence (P41968 whole entry): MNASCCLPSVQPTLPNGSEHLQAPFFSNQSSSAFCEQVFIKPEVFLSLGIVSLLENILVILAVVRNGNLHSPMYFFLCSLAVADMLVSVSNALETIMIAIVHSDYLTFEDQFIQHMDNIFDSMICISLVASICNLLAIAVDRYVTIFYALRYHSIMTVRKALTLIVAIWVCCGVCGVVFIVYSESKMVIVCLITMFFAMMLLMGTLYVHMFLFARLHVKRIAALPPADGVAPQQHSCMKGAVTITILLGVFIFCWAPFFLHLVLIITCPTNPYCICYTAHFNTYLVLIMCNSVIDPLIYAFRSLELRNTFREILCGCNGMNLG
T9 sequence (P41146 whole entry): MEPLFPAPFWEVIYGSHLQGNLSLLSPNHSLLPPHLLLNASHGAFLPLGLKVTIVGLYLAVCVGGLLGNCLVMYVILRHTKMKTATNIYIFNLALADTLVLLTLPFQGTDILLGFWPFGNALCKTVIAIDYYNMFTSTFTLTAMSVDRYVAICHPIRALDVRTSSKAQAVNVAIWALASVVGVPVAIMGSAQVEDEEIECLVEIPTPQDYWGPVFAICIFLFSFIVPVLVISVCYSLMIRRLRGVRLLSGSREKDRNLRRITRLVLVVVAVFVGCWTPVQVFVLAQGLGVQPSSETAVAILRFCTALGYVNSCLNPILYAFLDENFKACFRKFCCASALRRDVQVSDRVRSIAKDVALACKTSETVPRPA
T8 sequence (P32245 whole entry): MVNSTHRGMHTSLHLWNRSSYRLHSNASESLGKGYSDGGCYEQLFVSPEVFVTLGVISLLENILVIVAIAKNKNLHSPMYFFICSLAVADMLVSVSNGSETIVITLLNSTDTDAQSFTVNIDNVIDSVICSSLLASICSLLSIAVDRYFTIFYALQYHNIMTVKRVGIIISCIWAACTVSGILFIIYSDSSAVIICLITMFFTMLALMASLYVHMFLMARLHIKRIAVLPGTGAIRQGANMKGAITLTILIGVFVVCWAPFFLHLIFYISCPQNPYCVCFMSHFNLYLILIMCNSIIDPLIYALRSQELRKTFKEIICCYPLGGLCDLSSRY
T7 sequence (P33032 whole entry): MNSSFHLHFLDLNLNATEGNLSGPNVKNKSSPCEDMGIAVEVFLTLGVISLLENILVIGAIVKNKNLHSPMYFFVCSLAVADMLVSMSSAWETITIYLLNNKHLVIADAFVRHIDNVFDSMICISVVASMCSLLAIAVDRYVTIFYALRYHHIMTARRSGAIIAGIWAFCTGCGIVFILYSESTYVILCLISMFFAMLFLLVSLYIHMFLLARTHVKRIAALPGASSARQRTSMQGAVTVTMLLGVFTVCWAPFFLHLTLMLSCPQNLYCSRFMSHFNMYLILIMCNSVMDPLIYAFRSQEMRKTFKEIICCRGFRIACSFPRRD
T3 sequence (P41143 whole entry): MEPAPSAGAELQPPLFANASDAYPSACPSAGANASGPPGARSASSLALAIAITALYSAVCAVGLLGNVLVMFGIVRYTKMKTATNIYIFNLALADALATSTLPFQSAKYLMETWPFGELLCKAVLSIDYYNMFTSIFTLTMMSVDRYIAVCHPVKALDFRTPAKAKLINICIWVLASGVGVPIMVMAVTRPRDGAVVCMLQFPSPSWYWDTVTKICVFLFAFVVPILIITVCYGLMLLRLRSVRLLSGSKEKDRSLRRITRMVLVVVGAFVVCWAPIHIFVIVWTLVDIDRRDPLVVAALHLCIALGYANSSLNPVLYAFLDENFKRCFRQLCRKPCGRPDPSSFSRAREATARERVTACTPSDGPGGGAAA
T2 sequence (P35372 whole entry): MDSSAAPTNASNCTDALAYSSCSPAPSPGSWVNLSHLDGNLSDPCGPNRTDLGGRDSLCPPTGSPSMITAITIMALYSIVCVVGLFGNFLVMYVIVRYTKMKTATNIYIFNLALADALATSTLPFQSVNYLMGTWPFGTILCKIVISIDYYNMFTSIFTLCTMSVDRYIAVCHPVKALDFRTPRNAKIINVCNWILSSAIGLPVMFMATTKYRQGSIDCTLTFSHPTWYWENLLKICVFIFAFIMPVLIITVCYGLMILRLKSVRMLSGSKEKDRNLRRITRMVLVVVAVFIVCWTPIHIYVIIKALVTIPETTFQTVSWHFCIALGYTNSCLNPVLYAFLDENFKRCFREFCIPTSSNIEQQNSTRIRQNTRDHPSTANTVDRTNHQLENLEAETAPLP
T10 sequence (Q99705 whole entry): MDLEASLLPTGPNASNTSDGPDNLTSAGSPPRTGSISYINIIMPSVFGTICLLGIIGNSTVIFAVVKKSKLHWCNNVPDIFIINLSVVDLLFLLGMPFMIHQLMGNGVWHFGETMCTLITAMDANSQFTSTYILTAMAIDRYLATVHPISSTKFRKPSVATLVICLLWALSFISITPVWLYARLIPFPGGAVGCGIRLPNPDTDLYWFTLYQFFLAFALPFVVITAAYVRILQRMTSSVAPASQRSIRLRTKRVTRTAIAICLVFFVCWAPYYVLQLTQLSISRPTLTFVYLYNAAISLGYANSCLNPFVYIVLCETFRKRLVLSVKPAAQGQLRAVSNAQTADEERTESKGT

Structure (SMILES) | A9: inhibition of radioligand binding, human neuropeptide Y (NPY-Y1) [1] | A7: inhibition of radioligand binding, human μ-opioid (MOP) (Human μ-opioid (MOP); 10 µM) | A1: inhibition of radioligand binding, human δ-opioid (DOP) (Human δ-opioid (DOP); 10 µM) | A3: inhibition of radioligand binding, human melanocortin (MC3) (Human Melanocortin (MC3); 10 µM) | A2: inhibition of radioligand binding, human κ-opioid (KOP) (Human κ-Opioid (KOP); 10 µM) | A11: inhibition of radioligand binding, mouse urotensin (mUR2) (Mouse urotensin (mUR2)) | A5: inhibition of radioligand binding, human melanocortin (MC5) (Human melanocortin (MC5)) | A4: inhibition of radioligand binding, human melanocortin (MC4) (Human Melanocortin (MC4)) | A10: inhibition of radioligand binding, human opioid (ORL1) (Human opioid (ORL1)) | A6: inhibition of radioligand binding, human melanin-concentrating hormone (MCH1) [2] | A8: inhibition of radioligand binding, human neurokinin (NK1) (Human neurokinin (NK1)) | further results
COC[C@H]1OC(OCc2ccc(-c3ccccc3)cc2)[C@H](NC(=O)CCCNC(=N)N)[C@@H](OCc2ccc(-c3ccccc3)cc2)[C@@H]1O (single isomer, unassigned) [compound 335] | − (“−” indicates less than 50% inhibition at 10 μM) | + (“+” indicates greater than 50% inhibition at 10 μM) | + (“+” indicates greater than 50% inhibition at 10 μM) | + (“+” indicates greater than 50% inhibition at 10 μM) | + (“+” indicates greater than 50% inhibition at 10 μM) | − (“−” indicates less than 50% inhibition at 10 μM) | + (“+” indicates greater than 50% inhibition at 10 μM) | + (“+” indicates greater than 50% inhibition at 10 μM) | − (“−” indicates less than 50% inhibition at 10 μM) | + (“+” indicates greater than 50% inhibition at 10 μM) | + (“+” indicates greater than 50% inhibition at 10 μM) | –
COC[C@H]1OC(OCc2ccc(-c3ccccc3)cc2)[C@H](NC(=O)CCCNC(=N)N)[C@@H](OCc2ccc(-c3ccccc3)cc2)[C@@H]1O (single isomer, unassigned) [compound 336] | − (“−” indicates less than 50% inhibition at 10 μM) | − (“−” indicates less than 50% inhibition at 10 μM) | − (“−” indicates less than 50% inhibition at 10 μM) | − (“−” indicates less than 50% inhibition at 10 μM) | − (“−” indicates less than 50% inhibition at 10 μM) | − (“−” indicates less than 50% inhibition at 10 μM) | + (“+” indicates greater than 50% inhibition at 10 μM) | + (“+” indicates greater than 50% inhibition at 10 μM) | − (“−” indicates less than 50% inhibition at 10 μM) | + (“+” indicates greater than 50% inhibition at 10 μM) | + (“+” indicates greater than 50% inhibition at 10 μM) | –
COC[C@H]1OC(OCc2ccc(Cl)cc2)[C@H](NC(=O)CCCN)[C@@H](OCc2ccc3ccccc3c2)[C@@H]1O (single isomer, unassigned) [compound 343] | − (“−” indicates less than 50% inhibition at 10 μM) | – | – | – | – | − (“−” indicates less than 50% inhibition at 10 μM) | − (“−” indicates less than 50% inhibition at 10 μM) | − (“−” indicates less than 50% inhibition at 10 μM) | − (“−” indicates less than 50% inhibition at 10 μM) | − (“−” indicates less than 50% inhibition at 10 μM) | + (“+” indicates greater than 50% inhibition at 10 μM) | A7: inhibition of radioligand binding, human μ-opioid (MOP) (Human μ-opioid (MOP)): − (“−” indicates less than 50% inhibition at 10 μM); A1: inhibition of radioligand binding, human δ-opioid (DOP) (Human δ-opioid (DOP)): − (“−” indicates less than 50% inhibition at 10 μM); A3: inhibition of radioligand binding, human melanocortin (MC3) (Human Melanocortin (MC3)): − (“−” indicates less than 50% inhibition at 10 μM); A2: inhibition of radioligand binding, human κ-opioid (KOP) (Human κ-Opioid (KOP)): − (“−” indicates less than 50% inhibition at 10 μM)
COC[C@H]1OC(OCc2ccc(-c3ccccc3)cc2)[C@H](NC(=O)CCCN)[C@@H](OCc2cccc(O)c2)[C@@H]1O (stereo partly shown) [compound 131] | – | – | – | – | – | – | – | – | – | – | – | A9 radioligand binding, percentage inhibition [1]: − (“−” indicates less than 50% inhibition at 10 μM); A1 radioligand binding, percentage inhibition (Human δ-opioid (DOP)): − (“−” indicates less than 50% inhibition at 10 μM); A3 radioligand binding, percentage inhibition (Human Melanocortin (MC3)): − (“−” indicates less than 50% inhibition at 10 μM); A2 radioligand binding, percentage inhibition (Human κ-Opioid (KOP)): − (“−” indicates less than 50% inhibition at 10 μM); A11 radioligand binding, percentage inhibition (Mouse urotensin (mUR2)): − (“−” indicates less than 50% inhibition at 10 μM); A5 radioligand binding, percentage inhibition (Human melanocortin (MC5)): − (“−” indicates less than 50% inhibition at 10 μM); A4 radioligand binding, percentage inhibition (Human Melanocortin (MC4)): − (“−” indicates less than 50% inhibition at 10 μM); A10 radioligand binding, percentage inhibition (Human opioid (ORL1)): − (“−” indicates less than 50% inhibition at 10 μM); A6 radioligand binding, percentage inhibition [2]: + (“+” indicates greater than 50% inhibition at 10 μM); A8 radioligand binding, percentage inhibition (Human neurokinin (NK1)): − (“−” indicates less than 50% inhibition at 10 μM)
